{"source": "patent US6465441B2", "about": "“Screening method for modulation of human mast cell activation” (Duska Scientific Co., priority 1997, dated 2002)", "key": {"[1]": {"test_system": "human lung mast cells (HLMC)", "test": "Histamine release assay, anti-IgE-induced histamine release from purified human lung mast cells", "assay_type": "cell-based", "method": "(§1) Lung fragments were washed with Tyrode's buffer containing (g/l): NaCl, 8.0; KCl, 0.2; NaH2PO4, 0.05; and glucose, 1.0. The buffer was titrated to pH 7.2 by the addition of NaHCO3. Mast cell isolation and elutriation were performed in a buffer designated “TGMD”, prepared from Tyrode's buffer to which the following were added (g/l): gelatin (1.0), magnesium (0.25; 1 mM), and DNase (0.01). The buffer designated “PAGCM” was a Pipes-albumin (0.003%) buffer containing (g/l): glucose (1.0), CaCl2.2H2O, 0.14 (1 mM); and MgCl2.6H2O, 0.2 (1 mM).\n(§2) Mast cells were dispersed from human lung by methods previously reported (Schulman et al., J. Immunol. 29:2662-2667 (1982); Schulman et al., J. Immunol. 131:1936-1941 (1983)). Briefly, lung specimens obtained at thoracotomy for bronchogenic carcinoma were finely minced and extensively washed in divalent cation-free Tyrode's buffer. Fragments were briefly incubated in a mixture of pronase (2 mg/ml) and chymopapain (0.5 mg/ml). Freed cells were harvested through Nytex nylon cloth (150 microns pore size). Residual fragments were further exposed to a mixture of collagenase (1 mg/ml) and elastase (10 units/ml). All incubations and washes were performed at 37° C.; recovered cells were immediately washed three times in large volumes of TGMD. Mast cell purities in these human lung cell suspensions ranged from 1-8% as determined by alcian blue staining (Gilbert et al., Blood 46:279-285 (1975)). Lung mast cells were further purified, by counter-current elutriation, using previously reported methods (Schulman et al., J. Immunol. 131:1936-1941 (1983)). Mast cells were purified (80->98%) by flotation of enriched elutriation fractions through a discontinuous Percoll gradient (Ishizaka et al., J. Immunol. 130:2357-2362 (1983)). Further mast cell purification was accomplished by immunomagnetic negative selection against CD2, CD3, CD4, CD8, CD14, CD16, CD21 and HLADR to ensure against contamination by T cells, B calls, NK cells, monocytes, and dendritic cells prior to mast cell stimulation using previously described methods (Jaffe et al., Am. J. Respir. Cell. Mol. Biol. 13:665-675 (1995); Jaffe et al., Am. J. Respir. Cell. Mol. Biol. 15:473-481 (1996)).\nThe concentrations of anti-IgE produce 30-70% of maximal release. Twenty minutes following activation, cells were rapidly pelleted and supernatants removed for histamine analysis. Histamine release was expressed as the net histamine released divided by the total histamine content×100%. The total cellular histamine content was determined following cell lysis with 2% perchloric acid. Spontaneous histamine release was always <2% of cellular histamine and generally <1%. Histamine measurements were performed using the automated spectrofluorometric method of Technicon (Tarrytown, N.Y.). Variations between replicates were consistently <5%. All assays were run in duplicates."}, "human P2Y1 receptor": {"target": "human P2Y1 receptor (Homo sapiens, UniProt P47900)", "sequence (P47900 whole entry)": "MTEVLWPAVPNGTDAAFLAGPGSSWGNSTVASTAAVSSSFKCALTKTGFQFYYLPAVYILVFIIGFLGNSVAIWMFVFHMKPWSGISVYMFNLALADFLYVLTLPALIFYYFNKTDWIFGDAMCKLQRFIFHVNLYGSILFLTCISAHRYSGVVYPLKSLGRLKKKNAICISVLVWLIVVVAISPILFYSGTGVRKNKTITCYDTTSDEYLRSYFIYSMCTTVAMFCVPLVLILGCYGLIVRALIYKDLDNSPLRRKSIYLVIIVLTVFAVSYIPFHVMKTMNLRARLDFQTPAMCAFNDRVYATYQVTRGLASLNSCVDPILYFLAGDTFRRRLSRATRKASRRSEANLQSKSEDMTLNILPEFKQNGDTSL", "conditions": "cited from earlier work"}, "[2]": {"test_system": "rat peritoneal mast cells", "conditions": "cited from earlier work"}, "HLMC": {"test_system": "HLMC", "test": "Functional ectoATPase assay of HLMC (HPLC detection of purine compounds)", "assay_type": "in vitro ADME, human", "conditions": "10^−4M ATP, anti-IgE activated HLMC, 15 + 20 min incubation, n=3", "method": "The supernatants were separated from the cells by centrifugation at 14,000-×g for 5 minutes and kept at −20° C. until analyzed by HPLC. The method of Stocci et al., Anal. Biochem. 167:181-90 (1987) was used for the detection of the purine compounds. The HPLC system consisted of Waters 600E controller, Waters Novapak 4 μm 3.9×150 mm C18 column, and a 990 photodiode array detector. The solvent consisted of 0.1 mM KH2PO4, 8 mM tetrabutylammonium hydrogen sulfate (TAHS) pH 6.0 (buffer A), and 0.1 mM KH2PO4, 8 mM TAHS pH 6.0 with 30% (v/v) methanol (buffer B). The flow rate was 1 ml/min. with the following gradient program: 100% A to 2.5 min., linear gradient to 20% B at 5 min, to 40% B at 10 min., to 100% at 13 min., then 100% B to 30 min. 100 μl of supernatant (neat) was injected and the separation monitored at 254 nm over the 30 minute run time. The ATP peak areas were calculated and compared among the conditions. […] The data are the result of three experiments."}, "[3]": {"test_system": "human lung mast cells (HLMC)", "test": "Direct induction of histamine release from HLMC without anti-IgE", "assay_type": "cell-based", "conditions": "for direct induction of histamine release: no anti-IgE", "method": "as §1\nas §2, with “Further mast cell purification was accomplished by immunomagnetic negative selection against CD2, CD3, CD4, CD8, CD14, CD16, CD21 and HLADR to ensure against contamination by T cells, B calls, NK cells, monocytes, and dendritic cells prior to mast cell stimulation using previously described methods (Jaffe et al., Am. J. Respir. Cell. Mol. Biol. 13:665-675 (1995); Jaffe et al., Am. J. Respir. Cell. Mol. Biol. 15:473-481 (1996)).” left out\nThe concentrations of anti-IgE produce 30-70% of maximal release. […] Histamine release was expressed as the net histamine released divided by the total histamine content×100%. The total cellular histamine content was determined following cell lysis with 2% perchloric acid. […]"}, "[4]": {"conditions": "Example 3, control 9.9±3.1%, n=10"}, "[5]": {"conditions": "Example 4, 10^−4M (equimolar), control 14.9±3.9%, six experiments, p<0.05"}, "[6]": {"conditions": "Example 5, 10^−4M, control 10.3±3.0%, n=6"}, "[7]": {"conditions": "Example 5, 10^−5M, control 10.3±3.0%, n=6"}, "[8]": {"conditions": "Example 3, control 9.9±3.1%, ten experiments"}}, "data": [{"compound": "CSc1nc(N)c2ncn([C@@H]3O[C@H](COP(=O)(O)OP(=O)(O)OP(=O)(O)O)[C@@H](O)[C@H]3O)c2n1", "note": "[2-mSATP, 2methylthio-ATP]", "values": [{"measurement": "anti-IgE-induced histamine release", "setting": "[1]; [4]", "value": "14.3±3.9", "unit": "%"}]}, {"compound": "Nc1ncnc2c1ncn2[C@@H]1O[C@H](COP(=O)(O)O)[C@@H](O)[C@H]1OP(=O)(O)O", "note": "[A2P5P, adenosine-2′-phosphate-5′-phosphate]", "values": [{"measurement": "agonist activity at the human P2Y1 receptor", "setting": "human P2Y1 receptor", "value": "Partial agonists"}]}, {"compound": "Nc1ncnc2c1ncn2[C@@H]1O[C@H](COP(=O)(O)O)[C@@H](OP(=O)(O)O)[C@H]1O", "note": "[A3P5P, adenosine-3′-phosphate-5′-phosphate]", "values": [{"measurement": "agonist activity at the human P2Y1 receptor", "setting": "human P2Y1 receptor", "value": "devoid of agonist activity"}]}, {"compound": "Nc1ncnc2c1ncn2[C@@H]1O[C@H](COP(=O)(O)OS(=O)(=O)O)[C@@H](OP(=O)(O)O)[C@H]1O", "note": "[A3P5PS, adenosine-3′-phosphate-5′-phosphosulfate]", "values": [{"measurement": "agonist activity at the human P2Y1 receptor", "setting": "human P2Y1 receptor", "value": "devoid of agonist activity"}]}, {"compound": "Nc1ncnc2c1ncn2[C@@H]1O[C@H](COP(=O)(O)OP(=O)(O)OP(=O)(O)O)[C@@H](O)[C@H]1O", "note": "[ATP, adenosine 5′-triphosphate]", "values": [{"measurement": "concentration of maximum mediator secretion", "setting": "[2]; depressed by Ca^2+ and Mg^2+", "value": 2, "unit": "µM"}, {"measurement": "concentration that inhibits mediator release", "setting": "[2]; in the presence of millimolar Ca^2+", "value": "above 3 μM"}, {"measurement": "area under the ATP peak vs control (ATP alone without HLMC)", "setting": "HLMC", "value": "no noticeable decrease"}, {"measurement": "direct induction of histamine release", "setting": "[3]; ATP 10^−7M-10^−3M, n=23", "value": "did not directly induce histamine release"}, {"measurement": "histamine release on ATP challenge", "setting": "[3]; Ca^2+-free and Mg^2+-free media, results not shown", "value": "failed to provoke histamine release"}, {"measurement": "anti-IgE-induced histamine release", "setting": "[1]; 10^−3M, n=9, control 10.1+3.4%, not statistically significant (p>0.05)", "value": "14.0+2.4%"}, {"measurement": "effect on anti-IgE-induced histamine release", "setting": "[1]; 10^−4M, 9 of 9 experiments, control 10.1+3.4%, p<0.05", "value": "enhanced histamine release"}, {"measurement": "anti-IgE-induced histamine release", "setting": "[1]; 10^−4M, high responders, control 24.2±4.2%, n=7", "value": "32.9±4.5", "unit": "%"}, {"measurement": "percent enhancement of anti-IgE-induced histamine release", "setting": "[1]; 10^−4M, high responders, n=7", "value": 35, "unit": "%"}, {"measurement": "anti-IgE-induced histamine release", "setting": "[1]; 10^−4M, low responders (<3%), control 1.8±0.4%, n=6", "value": "13.5±2.7", "unit": "%"}, {"measurement": "percent enhancement of anti-IgE-induced histamine release", "setting": "[1]; 10^−4M, low responders, n=6", "value": 750, "unit": "%"}, {"measurement": "enhancement of anti-IgE-induced histamine release (absolute)", "setting": "[1]; 10^−4M, lowest and highest anti-IgE responsive preparations", "value": "8-10%"}, {"measurement": "effect on anti-IgE-induced histamine release", "setting": "[1]; 10^−5M, 9 of 9 experiments, control 10.1+3.4%, p<0.05", "value": "enhanced histamine release"}, {"measurement": "effect on anti-IgE-induced histamine release", "setting": "[1]; 10^−6M, six preparations", "value": "no effects"}, {"measurement": "anti-IgE-induced histamine release", "setting": "[1]; ATP 10^−4M, 20 anti-IgE-responsive preparations, control 10.9+2.7%, p<0.01", "value": "19.2+2.9%"}, {"measurement": "anti-IgE-induced histamine release", "setting": "[1]; [4]", "value": "17.7±4.1", "unit": "%"}, {"measurement": "anti-IgE-induced histamine release", "setting": "[1]; [5]", "value": "23.0±4.7", "unit": "%"}, {"measurement": "anti-IgE-induced histamine release", "setting": "[1]; [6]", "value": "significantly enhanced"}, {"measurement": "anti-IgE-induced histamine release", "setting": "[1]; [7]", "value": "significantly enhanced"}, {"measurement": "anti-IgE-induced histamine release", "setting": "[1]; Example 9, ATP 10^4−M, control 11.2±5.3%, four experiments", "value": "15.7±7.1", "unit": "%"}, {"measurement": "effect in preparations that failed to respond to anti-IgE alone", "setting": "[1]; preincubation 10^−6-10^−3M, 3/23 preparations", "value": "without effect"}]}, {"compound": "Cc1nc(N=Nc2ccc(S(=O)(=O)O)cc2S(=O)(=O)O)c(COP(=O)(O)O)c(C=O)c1O", "note": "[PPADS, pyridzalphosphate-6-azophenyl-2′,4′-disulfonic acid]", "values": [{"measurement": "anti-IgE-induced histamine release with ATP after preincubation with antagonist", "setting": "[1]; Example 9, ATP alone 15.7±7.1%, no significant modulation", "value": "16.1±5.9", "unit": "%"}]}, {"compound": "Nc1ncnc2c1ncn2[C@@H]1O[C@H](CO)[C@@H](O)[C@H]1O", "note": "[adenosine]", "values": [{"measurement": "direct induction of histamine release", "setting": "[3]; adenosine alone", "value": "did not directly induce histamine release"}, {"measurement": "anti-IgE-induced histamine release", "setting": "[1]; Example 5, 10^−3 M, control 10.3±3.0%, n=6, p<0.05", "value": "5.3±1.9", "unit": "%"}, {"measurement": "anti-IgE-induced histamine release", "setting": "[1]; [6]", "value": "11.2±4.7", "unit": "%"}, {"measurement": "anti-IgE-induced histamine release", "setting": "[1]; [7]", "value": "13.4±5.6", "unit": "%"}]}, {"compound": "Nc1ncnc2c1ncn2[C@@H]1O[C@H](COP(=O)(O)CP(=O)(O)OP(=O)(O)O)[C@@H](O)[C@H]1O", "note": "[α,βmATP, α,βmethylene-ATP]", "values": [{"measurement": "induction of mediator release", "setting": "[2]", "value": "inactive"}, {"measurement": "effect on anti-IgE-induced histamine release", "setting": "[1]; [8]", "value": "enhanced"}]}, {"compound": "Nc1ncnc2c1ncn2[C@@H]1O[C@H](COP(=O)(O)OP(=O)(O)CP(=O)(O)O)[C@@H](O)[C@H]1O", "note": "[β,γmATP, β,γmethylene-ATP]", "values": [{"measurement": "induction of mediator release", "setting": "[2]", "value": "inactive"}, {"measurement": "effect on anti-IgE-induced histamine release", "setting": "[1]; [8]", "value": "enhanced"}]}, {"compound": "adenosine-2′-phosphate-5′-phosphoribose", "values": [{"measurement": "agonist activity at the human P2Y1 receptor", "setting": "human P2Y1 receptor", "value": "Partial agonists"}]}, {"compound": "uracil triphosphate [UTP]", "values": [{"measurement": "achieving mediator release in comparison with ATP", "setting": "[2]; 10^−4M", "value": "almost inactive"}, {"measurement": "anti-IgE-induced histamine release", "setting": "[1]; [5]", "value": "19.2±5.0", "unit": "%"}]}]}
